Data on twelve compounds can be found in ChEMBL document CHEMBL1201862, “PubChem BioAssay data set” (2004).

Calls of active or inactive are those of the source.

The target of test [1] is T1, Probable nicotinate-nucleotide adenylyltransferase (Staphylococcus aureus (strain N315), UniProt P65502). The class given is functional, Staphylococcus aureus subsp. aureus N315.
Test [2] concerns the target T1, Probable nicotinate-nucleotide adenylyltransferase. The test is classed as functional, Staphylococcus aureus subsp. aureus N315. The conditions noted are these: read-out: IC50_Mean.
The target of test [3] is T2, Voltage-gated N-type calcium channel alpha-1B subunit/Amyloid beta A4 precursor protein-binding family A member 1 (Homo sapiens, UniProt Q00975+Q02410). The class given is protein assay.
Test [4] deals with T2, Voltage-gated N-type calcium channel alpha-1B subunit/Amyloid beta A4 precursor protein-binding family A member 1. The class given is protein assay. This is another data set of the same source.
The test system of test [5] is HEK293. Description: inhibitors of LMP1-driven NF-kB reporter, dose response, cell-based, HEK293, luciferase, cherry-pick (AID 588343). Conditions: Homo sapiens. The class given is functional.
Test [6] addresses T3, Carboxy-terminal domain RNA polymerase II polypeptide A small phosphatase 1 (Homo sapiens, UniProt Q9GZU7).
T3 sequence (Q9GZU7 whole entry): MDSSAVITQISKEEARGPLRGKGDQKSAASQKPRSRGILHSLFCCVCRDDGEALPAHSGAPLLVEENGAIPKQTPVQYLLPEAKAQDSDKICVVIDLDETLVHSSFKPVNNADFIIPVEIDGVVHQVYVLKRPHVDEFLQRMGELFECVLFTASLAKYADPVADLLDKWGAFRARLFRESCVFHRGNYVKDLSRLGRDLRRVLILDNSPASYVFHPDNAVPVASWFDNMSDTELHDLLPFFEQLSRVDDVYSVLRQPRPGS
Description: inhibitors of CTDSP1, concentration-response testing, biochemical assay, absorbance-based, actives from ultra-high-throughput screening (AID 540297). The class given is functional.

The target in test [7] is T4, Low molecular weight phosphotyrosine protein phosphatase (Homo sapiens, UniProt P24666).
T4 sequence (P24666 whole entry): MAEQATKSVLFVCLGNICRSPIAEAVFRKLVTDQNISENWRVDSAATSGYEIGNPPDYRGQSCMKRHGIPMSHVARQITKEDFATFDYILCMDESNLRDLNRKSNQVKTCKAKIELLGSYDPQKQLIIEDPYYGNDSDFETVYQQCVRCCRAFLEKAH
The test is classed as functional. Conditions: read-out: IC50_Mean.

The nature of test [8]: NIH-3T3 fibroblast cytotoxicity, dose response, cytotoxicity control, cell-based, fluorescence, Alamar Blue, secondary assay (AID 2327).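 Note: NIH-3T3 mouse fibroblasts cultured with fluconazole at 8 µg/mL.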 The class given is functional. On the technique in general: Alamar Blue is a resazurin reagent that responds to reducing activity.
Test [9] is described as follows: C. albicans growth with fluconazole, confirmation, fluorescence, retest (AID 2467). The test is classed as functional, cell-based.
Test [10] can be described thus: inhibitors of intracellular T. cruzi replication, confirmation, NIH3T3 host cells, beta-gal luminescence (AID 2044).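 Note: intracellular parasites grown in NIH/3T3 mouse fibroblasts as host cells; luminescent beta-galactosidase reporter signal from transgenic T. cruzi replicating inside host cells; inhibitors lower the luminescence signal.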 The class given is functional, cell-based.
A short description of test [11]: cytotoxicity toward NIH3T3 fibroblasts, dose response, counter-screen, cell-based, ATP luminescence, mouse fibroblasts (AID 2010).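 Note: cells exposed to compound for about 90 hours before reading.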 The class given is functional. (The purpose of a counterscreen is to sort out artefacts and off-target activity.)
For test [12], the target named is Photoreceptor-specific nuclear receptor (Homo sapiens, UniProt Q9Y5X4). The test is classed as functional, cell-based.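 Note: CHO-S cells with Gal4-NCOR and VP16-NR2E3 two-hybrid luciferase reporter.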
A further test is described as follows: cells. The test is classed as functional, cell-based.
The target in test [13] is T5, Nuclear receptor subfamily 0 group B member 1 (Homo sapiens, UniProt P51843).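 Note: HEK293T cells transfected with SF-1 and DAX-1 plus StAR promoter luciferase reporter.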
T5 sequence (P51843 whole entry): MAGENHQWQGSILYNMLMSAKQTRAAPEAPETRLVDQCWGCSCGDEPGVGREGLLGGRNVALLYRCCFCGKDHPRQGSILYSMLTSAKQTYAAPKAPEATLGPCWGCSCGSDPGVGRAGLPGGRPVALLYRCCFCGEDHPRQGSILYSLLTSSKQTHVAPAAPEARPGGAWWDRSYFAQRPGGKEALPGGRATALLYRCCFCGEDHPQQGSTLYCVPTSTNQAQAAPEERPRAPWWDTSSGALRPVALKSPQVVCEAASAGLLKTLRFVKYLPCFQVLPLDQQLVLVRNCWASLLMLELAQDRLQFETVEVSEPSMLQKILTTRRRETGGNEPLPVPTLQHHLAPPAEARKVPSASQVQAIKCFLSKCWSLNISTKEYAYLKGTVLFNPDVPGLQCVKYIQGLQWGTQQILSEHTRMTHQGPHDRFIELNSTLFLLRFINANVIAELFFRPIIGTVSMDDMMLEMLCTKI
The test is classed as functional, cell-based.

The test system of test [14] is HEK293. Description: cells. The conditions noted are these: Homo sapiens.
The subject of test [15] is HEK293. In words: cells. Conditions: Homo sapiens. The source holds these as a separate data set.
Test [16] can be described thus: AlphaScreen signal interference compounds, dose response, artefact control for ARNT-TACC3 interaction inhibitor project, biochemical, luminescence, cherry-pick (AID 651705).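 Note: AlphaScreen bead proximity signal that flags compounds interfering with the detection technology; potency reflects signal decrease which marks the compound as an assay artifact.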 The class given is functional.
Test [17] has as its target Fructose-bisphosphate aldolase (Mycobacterium tuberculosis, UniProt P9WQA3). In words: Fluorescence-based biochemical high throughput dose response assay for inhibitors of the fructose-bisphosphate aldolase (FBA) of M. tuberculosis. The test is classed as functional.
Test [18] has as its target Dual specificity tyrosine-phosphorylation-regulated kinase 1A (Rattus norvegicus, UniProt Q63470). The test is classed as biochemical, Homo sapiens.
The target of test [19] is DNA repair and recombination protein RAD54-like (Homo sapiens, UniProt Q92698). Description: inhibitors of human RAD54 branch migration, confirmation, biochemical, fluorescence, cherry-picked samples, dose series (AID 651657). The class given is functional.
Test [20] concerns the target T6, Rac GTPase-activating protein 1 (Homo sapiens, UniProt Q9H0H5).
T6 sequence (Q9H0H5 whole entry): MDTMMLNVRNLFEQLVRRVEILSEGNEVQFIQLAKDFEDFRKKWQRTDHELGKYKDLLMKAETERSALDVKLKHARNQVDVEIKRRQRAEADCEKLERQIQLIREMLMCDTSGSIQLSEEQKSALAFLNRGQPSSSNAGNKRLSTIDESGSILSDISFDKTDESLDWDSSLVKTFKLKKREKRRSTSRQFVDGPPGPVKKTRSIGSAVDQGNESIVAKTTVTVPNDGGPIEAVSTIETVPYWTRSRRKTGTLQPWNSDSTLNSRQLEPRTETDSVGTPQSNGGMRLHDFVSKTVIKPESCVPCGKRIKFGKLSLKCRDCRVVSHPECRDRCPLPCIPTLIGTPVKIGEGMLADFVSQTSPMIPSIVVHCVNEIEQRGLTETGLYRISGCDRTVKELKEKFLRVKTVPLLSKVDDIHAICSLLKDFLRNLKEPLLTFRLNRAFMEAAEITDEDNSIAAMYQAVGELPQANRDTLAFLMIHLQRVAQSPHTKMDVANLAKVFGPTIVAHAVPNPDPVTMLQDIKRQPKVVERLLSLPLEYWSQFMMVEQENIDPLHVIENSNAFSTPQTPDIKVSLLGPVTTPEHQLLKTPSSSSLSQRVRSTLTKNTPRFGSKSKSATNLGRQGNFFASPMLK
In words: MgcRacGAP GTPase-activating activity inhibitors, confirmation, biochemical, ADP Hunter fluorescence, primary and confirmatory (AID 624330). The class given is functional.

For another test, the system named is H9c2. Description: cells. The test is classed as functional, cell-based. The conditions noted are these: Rattus norvegicus, H9c2, Myocardium.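 Note: confirmatory concentration-response retest of ultra-high-throughput screening hits for modulation of myocardial damage; cell death induced by hydrogen peroxide oxidative stress; compound pretreatment for 60 min then peroxide exposure for 2 h; potency is for protecting the cells against peroxide damage rather than for killing them.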
Test [21] in a line: inhibitors of HIV Env-driven cell fusion, dose response, cherry-pick (AID 652057). The test is classed as functional, cell-based.
A short description of test [22]: CEM21 lymphoblast cell cytotoxicity, dose response, cytotoxicity control for viral fusion inhibitor project, CellTiter-Glo luminescence, cherry-picked (AID 652042).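 Note: potency for signal decrease meaning cytotoxicity.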 The test is classed as functional, cell-based. (In ATP-based viability assays light output follows the ATP content of the culture.)
Test [23] in a line: ZM109 Env clade C HIV-1 fusion inhibitors, dose response, HeLa effector, CEM target cells, luciferase, cherry-pick (AID 652058). The test is classed as functional, cell-based.
Test [24] in a line: off-target signal loss in HeLa-CEM21 co-culture – HeLa F-luc CTL cells, cherry-picked, counter-screen for HIV-1 Env fusion inhibitor project, dose response (AID 652040).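 Note: potency for signal decrease marking cytotoxic or nonspecific inhibition.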 The class given is functional, cell-based.
Test [25] can be described thus: inhibitors of clade B AD8 Env fusion, dose response, cell-based, cherry-pick (AID 652062).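 Note: luciferase signal from cell-cell fusion driven by HIV-1 clade B AD8 Env; potency is for inhibitors of fusion seen as a drop in luminescence.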 The class given is functional.
In test [26] the target is Induced myeloid leukemia cell differentiation protein Mcl-1 (Homo sapiens, UniProt Q07820). The class given is functional.
Test [27] in a line: Fluorescence-based cell-based high throughput dose response assay for inhibitors of the interaction of nucleotide-binding oligomerization domain containing 2 (NOD2) and the receptor-interacting serine-threonine kinase 2 (RIPK2). The test is classed as functional. The conditions noted are these: Homo sapiens.
Test [28] can be described thus: HeLa cell cytotoxicity, dose response, cytotoxicity control for MgcRacGAP inhibitor project (AID 624300). The test is classed as functional.

T1 sequence (P65502 whole entry): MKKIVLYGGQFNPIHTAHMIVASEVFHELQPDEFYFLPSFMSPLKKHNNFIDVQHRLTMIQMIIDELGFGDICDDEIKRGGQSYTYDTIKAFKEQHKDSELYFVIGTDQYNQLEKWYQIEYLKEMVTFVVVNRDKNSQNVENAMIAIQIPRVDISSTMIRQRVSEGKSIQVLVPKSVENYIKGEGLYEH
T2 sequence (Q00975 whole entry): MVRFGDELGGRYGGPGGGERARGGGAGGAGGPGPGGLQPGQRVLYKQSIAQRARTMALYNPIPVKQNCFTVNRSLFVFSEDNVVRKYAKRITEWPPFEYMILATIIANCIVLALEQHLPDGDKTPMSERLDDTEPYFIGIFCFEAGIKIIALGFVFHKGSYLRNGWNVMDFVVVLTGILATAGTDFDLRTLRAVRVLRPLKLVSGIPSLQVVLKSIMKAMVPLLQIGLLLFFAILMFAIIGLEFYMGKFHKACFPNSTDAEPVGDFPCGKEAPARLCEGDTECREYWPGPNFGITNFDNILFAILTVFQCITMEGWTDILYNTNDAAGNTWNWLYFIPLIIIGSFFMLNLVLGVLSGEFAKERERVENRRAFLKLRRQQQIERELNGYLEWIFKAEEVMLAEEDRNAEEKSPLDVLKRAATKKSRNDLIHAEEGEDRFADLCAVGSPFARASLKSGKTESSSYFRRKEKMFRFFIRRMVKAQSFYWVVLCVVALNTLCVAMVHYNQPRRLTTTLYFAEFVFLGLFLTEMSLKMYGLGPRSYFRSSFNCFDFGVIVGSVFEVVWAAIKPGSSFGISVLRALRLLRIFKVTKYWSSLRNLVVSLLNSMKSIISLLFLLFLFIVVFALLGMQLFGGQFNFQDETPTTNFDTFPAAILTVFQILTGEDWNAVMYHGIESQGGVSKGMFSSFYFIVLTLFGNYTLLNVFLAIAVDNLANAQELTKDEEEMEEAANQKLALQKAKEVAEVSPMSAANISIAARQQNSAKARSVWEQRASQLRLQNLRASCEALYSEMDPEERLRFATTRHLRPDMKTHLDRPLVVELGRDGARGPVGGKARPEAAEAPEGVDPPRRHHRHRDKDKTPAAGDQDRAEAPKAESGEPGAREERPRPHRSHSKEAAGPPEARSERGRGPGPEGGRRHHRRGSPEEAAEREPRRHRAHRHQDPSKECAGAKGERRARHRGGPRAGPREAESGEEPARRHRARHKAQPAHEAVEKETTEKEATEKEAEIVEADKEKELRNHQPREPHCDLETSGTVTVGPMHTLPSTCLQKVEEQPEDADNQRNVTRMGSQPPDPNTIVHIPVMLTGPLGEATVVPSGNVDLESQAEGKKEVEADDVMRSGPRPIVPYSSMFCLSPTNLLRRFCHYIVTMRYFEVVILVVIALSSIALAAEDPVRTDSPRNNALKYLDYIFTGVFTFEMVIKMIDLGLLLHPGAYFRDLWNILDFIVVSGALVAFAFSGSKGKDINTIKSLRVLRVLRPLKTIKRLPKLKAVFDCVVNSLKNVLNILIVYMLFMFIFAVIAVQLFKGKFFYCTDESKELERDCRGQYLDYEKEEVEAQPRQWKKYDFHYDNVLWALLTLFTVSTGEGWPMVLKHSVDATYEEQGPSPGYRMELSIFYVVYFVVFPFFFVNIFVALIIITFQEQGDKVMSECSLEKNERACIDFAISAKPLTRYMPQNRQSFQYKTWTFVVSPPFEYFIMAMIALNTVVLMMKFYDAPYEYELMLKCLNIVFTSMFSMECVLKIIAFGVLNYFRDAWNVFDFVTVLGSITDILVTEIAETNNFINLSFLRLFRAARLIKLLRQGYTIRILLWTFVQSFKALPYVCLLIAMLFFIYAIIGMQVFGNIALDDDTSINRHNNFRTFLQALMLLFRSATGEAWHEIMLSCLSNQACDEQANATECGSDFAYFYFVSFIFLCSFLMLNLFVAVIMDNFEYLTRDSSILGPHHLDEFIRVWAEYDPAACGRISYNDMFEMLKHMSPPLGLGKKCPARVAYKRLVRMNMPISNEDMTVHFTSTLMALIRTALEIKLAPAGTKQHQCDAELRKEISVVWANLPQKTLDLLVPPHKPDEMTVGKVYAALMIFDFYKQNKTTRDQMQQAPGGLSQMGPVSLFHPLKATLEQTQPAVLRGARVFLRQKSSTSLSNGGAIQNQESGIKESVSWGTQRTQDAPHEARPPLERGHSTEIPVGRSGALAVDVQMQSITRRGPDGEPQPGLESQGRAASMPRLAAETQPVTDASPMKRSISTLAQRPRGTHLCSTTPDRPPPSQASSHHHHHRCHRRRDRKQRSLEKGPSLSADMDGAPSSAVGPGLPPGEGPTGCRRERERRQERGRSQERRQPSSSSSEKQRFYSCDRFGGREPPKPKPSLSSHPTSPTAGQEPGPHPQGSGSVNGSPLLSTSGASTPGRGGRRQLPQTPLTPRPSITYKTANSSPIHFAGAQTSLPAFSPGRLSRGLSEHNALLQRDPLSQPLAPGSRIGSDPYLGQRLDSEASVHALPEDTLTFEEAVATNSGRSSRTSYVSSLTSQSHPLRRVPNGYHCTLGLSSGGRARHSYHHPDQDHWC
T2 sequence (Q02410 whole entry): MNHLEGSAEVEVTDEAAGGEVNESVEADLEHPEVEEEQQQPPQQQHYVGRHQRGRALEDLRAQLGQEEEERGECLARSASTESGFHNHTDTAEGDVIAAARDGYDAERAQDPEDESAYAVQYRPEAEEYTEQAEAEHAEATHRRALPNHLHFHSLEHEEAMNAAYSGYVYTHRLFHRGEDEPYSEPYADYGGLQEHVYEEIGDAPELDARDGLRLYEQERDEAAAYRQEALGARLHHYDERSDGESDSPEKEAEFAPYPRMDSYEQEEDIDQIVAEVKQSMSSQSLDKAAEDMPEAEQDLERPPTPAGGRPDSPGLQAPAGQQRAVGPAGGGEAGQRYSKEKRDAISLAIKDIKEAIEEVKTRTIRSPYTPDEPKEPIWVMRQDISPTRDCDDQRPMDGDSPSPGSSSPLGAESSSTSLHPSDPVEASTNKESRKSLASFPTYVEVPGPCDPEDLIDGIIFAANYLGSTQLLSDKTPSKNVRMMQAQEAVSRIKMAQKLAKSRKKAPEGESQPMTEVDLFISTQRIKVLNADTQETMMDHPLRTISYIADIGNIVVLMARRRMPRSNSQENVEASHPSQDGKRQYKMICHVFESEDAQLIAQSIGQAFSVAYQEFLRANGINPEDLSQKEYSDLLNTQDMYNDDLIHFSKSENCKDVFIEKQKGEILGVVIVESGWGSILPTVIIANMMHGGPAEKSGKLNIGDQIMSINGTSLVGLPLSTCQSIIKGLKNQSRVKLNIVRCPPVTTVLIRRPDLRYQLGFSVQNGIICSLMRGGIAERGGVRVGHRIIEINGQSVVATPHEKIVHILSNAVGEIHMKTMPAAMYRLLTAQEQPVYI
Sequence of Photoreceptor-specific nuclear receptor (Q9Y5X4 whole entry, the tested form may be a part): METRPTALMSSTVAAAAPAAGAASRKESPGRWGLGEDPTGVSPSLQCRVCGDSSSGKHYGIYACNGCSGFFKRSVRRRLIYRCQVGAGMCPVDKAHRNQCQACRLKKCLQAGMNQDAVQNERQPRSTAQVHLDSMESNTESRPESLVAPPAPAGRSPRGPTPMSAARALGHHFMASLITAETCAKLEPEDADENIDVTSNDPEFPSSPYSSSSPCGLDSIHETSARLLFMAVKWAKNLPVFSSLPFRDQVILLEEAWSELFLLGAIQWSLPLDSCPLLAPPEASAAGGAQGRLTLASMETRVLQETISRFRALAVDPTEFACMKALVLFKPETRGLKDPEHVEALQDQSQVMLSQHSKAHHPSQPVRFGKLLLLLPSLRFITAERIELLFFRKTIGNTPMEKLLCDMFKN
Sequence of Fructose-bisphosphate aldolase (P9WQA3 whole entry): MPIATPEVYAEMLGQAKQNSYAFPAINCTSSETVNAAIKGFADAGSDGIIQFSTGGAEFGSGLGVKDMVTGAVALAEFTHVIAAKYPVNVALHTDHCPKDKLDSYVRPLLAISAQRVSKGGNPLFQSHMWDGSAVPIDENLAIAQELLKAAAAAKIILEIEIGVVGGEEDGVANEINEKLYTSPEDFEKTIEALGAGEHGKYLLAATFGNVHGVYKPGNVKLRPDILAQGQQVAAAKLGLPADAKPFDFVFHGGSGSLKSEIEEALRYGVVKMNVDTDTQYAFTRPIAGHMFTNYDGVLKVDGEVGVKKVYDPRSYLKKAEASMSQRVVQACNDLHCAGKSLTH
Sequence of DNA repair and recombination protein RAD54-like (Q92698 whole entry): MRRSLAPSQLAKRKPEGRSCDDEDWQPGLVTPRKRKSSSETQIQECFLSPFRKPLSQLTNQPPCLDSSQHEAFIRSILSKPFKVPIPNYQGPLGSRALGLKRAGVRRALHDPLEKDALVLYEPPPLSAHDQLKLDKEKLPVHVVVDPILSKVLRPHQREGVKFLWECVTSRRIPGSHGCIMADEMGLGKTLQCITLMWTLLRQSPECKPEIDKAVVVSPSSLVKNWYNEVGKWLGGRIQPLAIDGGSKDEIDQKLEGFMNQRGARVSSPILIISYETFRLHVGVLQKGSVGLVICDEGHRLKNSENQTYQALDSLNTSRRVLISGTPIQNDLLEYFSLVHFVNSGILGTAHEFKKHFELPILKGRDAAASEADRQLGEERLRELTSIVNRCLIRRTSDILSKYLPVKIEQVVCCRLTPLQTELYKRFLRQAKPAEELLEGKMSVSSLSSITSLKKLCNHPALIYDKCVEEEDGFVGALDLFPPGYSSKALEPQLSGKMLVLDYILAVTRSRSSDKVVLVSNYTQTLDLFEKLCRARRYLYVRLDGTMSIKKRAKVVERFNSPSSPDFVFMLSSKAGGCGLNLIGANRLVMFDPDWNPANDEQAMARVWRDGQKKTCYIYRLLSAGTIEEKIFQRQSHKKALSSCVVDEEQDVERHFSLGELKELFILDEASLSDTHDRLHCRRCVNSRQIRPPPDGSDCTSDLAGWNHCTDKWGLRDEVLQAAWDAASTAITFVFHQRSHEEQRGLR

As to `Cc1ccccc1C(=O)Nc1cc[n+](-c2nc3ccccc3nc2[N-]S(=O)(=O)c2ccc(F)cc2)cc1`, the IC50 in [1] was 5.96 µM (active); in test [2], 23.8 µM (active).
On to `COc1ccc2cc3c(N)nn(C(=O)c4cccc([N+](=O)[O-])c4)c3nc2c1`, for which the IC50 in test [3] was 12.2 µM (active); in [4] it was > 50 µM (inactive); in test [6], 4.35 µM (active); in test [7], 19.1 µM (active). In addition, in the test on HEK293 [5], the concentration at half-maximal activity (AC50) was 3.08 µM (active).
On to `COc1cc2c(O)c3c(c(-c4ccc5c(c4)OCO5)c2cc1OC)C(=O)OC3` [DIPHYLLIN], for which the EC50 was 33.5 µM (active) in [8]; 2.59 µM (active) in test [9]; 1.65 µM (active) in test [10]; > 30 µM (not active) in test [11]; > 59.7 µM (inactive) in the test with HEK293 [14]; > 59.7 µM (inactive) with HEK293 [15]. For the same compound, the IC50 in test [12] is 0.962 µM (active); in the test “cells”, > 67.6 µM (inactive); in test [13], > 67.6 µM (inactive).
As to `O=C(NCCCn1ccnc1)C(=O)NCC1OCCN1S(=O)(=O)c1ccc2c(c1)OCCO2` (configuration not stated), the AC50 in test [16] was 89.6 µM (active).
As for `CC(C)(C)c1ccc(CSc2nc(N)cc(O)n2)cc1`, the IC50 in [12] was 5.21 µM (active).
For `Cc1ccc(-n2nc3ccc(N)cc3n2)cc1C`, the IC50 in test [17] was 0.895 µM (active).
Consider `Cc1[nH]ccc2c1[nH]c1cc(=O)ccc12` [HARMOL], for which the results for the half-maximal activity concentration (AC50) in test [18] and in test [19] were 0.298 µM (active) and 23.9 µM (active), respectively. The IC50 in test [20] is 44.9 µM (active).
Take `CSCC[C@H](NC(=O)OC(C)(C)C)C(=O)N/N=C/c1cccc2cccnc12`: the IC50 in the test with H9c2 is > 79 µM (inactive). Moreover, the half-maximal activity concentration (AC50) in [16] was 132 µM (active).
Turning to `Cn1c(NCc2c(O)ccc3ccccc23)nc2ccccc21`, the AC50 in test [21] was 15.4 µM (active); in test [22], 58.1 µM (active); in test [23] it was 22.1 µM (active); in [24], 40.6 µM (active); in test [25], 28.9 µM (active).
As to `C/C(=N\NC(=O)c1cccc(N/N=C(\C)c2ccco2)c1)c1ccco1`, the IC50 in test [26] was 3.19 µM (active); in test [6] it was 3.17 µM (active); in [1] it was 10.6 µM (active); in test [2], 14.8 µM (active).
Consider `CN(C)CCC(=O)N1C/C(=C/c2ccccc2)C(=O)/C(=C\c2ccccc2)C1`, for which the results for the IC50 in [27] and in [20] were 3.78 µM (active) and 167 µM (active), respectively. In test [28], the 50% cytotoxic concentration (CC50) is 25 µM (active).
Consider `Cn1c(/C=N/n2cnnc2)nc2ccccc21`, for which, in test [17], the IC50 was 1.54 µM (active).

As a reminder, the AC50 is the midpoint of the concentration-response curve, whichever way the signal moves. A word on the EC50: it is the concentration at which the effect is half-maximal. A word on the CC50: it is the concentration at which the toxic effect on the cells reaches its halfway point.
